According to patent publication US8435975B2, “Steroidal esters of 17-oximino-5-androsten-3beta-ol” (Council of Scientific & Industrial Research, priority 2007, dated 2013):
Where “and” joins values, the source holds several entries; their conditions need not be identical. Equal values may be shown once. Entries after “also recorded” stand apart in the source; their conditions may differ.

Experiments:
5α-reductase = experiment: In vivo effect on serum testosterone level (5α-reductase inhibitory activity), ELISA; design: species or system Sprague Dawley rats; details: for Serum levels of Testosterone, T: Sprague Dawley male rats, intraperitoneal, Finasteride 40 mg/kg and equimolar dose of compounds, 6 hr after treatment; for effect on serum testosterone level (in words): rats, 6 hr post dose, compared to control
Description: Animals (Sprague Dawley male rats weighing 150-200 g) were divided into 3 groups; vehicle (control), Finasteride (standard), treated (test sample) and each group consist of 5 animals. Sprague Dawley rats were treated intraperitoneally with Finasteride 40 mg/kg and equimolar dose of compounds. After 6 hr of treatment, blood was withdrawn by cardiac puncture under diethyl ether anesthesia and serum was separated from cells by centrifugation. Plasma testosterone values were obtained by ELISA plate reader at […] and are given in ng/ml.
The aliquots of 50 μl of each of standards, control and unknown (serum samples) were added to Testosterone Antibody coated wells. 100 μl of HRP-testosterone conjugate was added to all the wells and the plates were shaken gently on a shaker for proper mixing of the reagents. Following 4 hr of incubation at 37° C., the incubation mixture was removed. The wells were washed with phosphate buffer for 5-6 times (200 μl each time), followed by addition of 100 μl of TMB/H2O2 substrate in each of the wells. The plates were further incubated at 37° C. for 20 minutes. At the end of incubation reaction was stopped by using 100 μl of 0.5 M H2SO4 as stopping reagent. The absorbance of each well was read on Elisa plate reader at 450 nm [Rassaie, M. J.; Kumari, G. L.; Pandey, P. K.; Gupta, N.; Kochupillai, N.; Grover, P. K. Steroids 1992, 57, 288 and Hosoda, H.; Yoshida, H.; Sakai, Y.; Miyairi, S.; Nambara, T. Chem. Pharm. Bull. 1980, 28, 3035]
Intact male rats (Sprague Dawley, 200-250 g) were used in the designed study in which various compounds were compared for in vivo 5α-reductase inhibitory potency, as judged by the their ability to attenuate the conversion of testosterone into dihydrotestosterone (DHT). […] The procedure measure T equally well, and method met all the requirement of precision, accuracy, sensitivity and selectivity.

[1] = system: human prostate cancer cell line (DU-145); experiment: Growth inhibitory activity assay (MTT assay), in vitro antiproliferative activity; format: cell-based; details: DU-145 cells; for inhibition at 0.01 µg/mL / inhibition at 0.5 µg/mL / inhibition at 1 µg/mL / inhibition at 2 µg/mL / inhibition at 5 µg/mL: Homo sapiens, DU-145, 48 h, read-out: % growth inhibition (mean ± SEM); for inhibition at 0.01 µg/mL / inhibition at 0.5 µg/mL / inhibition at 1 µg/mL / inhibition at 2 µg/mL / inhibition at 5 µg/mL / % growth inhibition (mean ± SEM): 48 hr; for antiproliferative activity (in words): 0.01-5.0 μg/ml
Description: 1) In Vitro Antiproliferative Activity Against Human Prostate Cancer Cell Line (DU-145)
Compounds were screened for antiproliferative activity on human prostate cell line DU-145 at National Centre of Human Genome Studies and Research. Panjab University, Chandigarh. All the compounds (10 to 16), Finasteride and starting material (9) were tested at five different concentrations: 0.01, 0.5, 1.0, 2.0, and 5.0 μg/ml. Finasteride was the positive control in this growth inhibitory assay.
Growth Inhibitory Activity Assay (MTT Assay)
We investigated the effect of newly synthesized compounds on cell growth inhibition using MTT assay. This assay quantifies the viable cells by observing the reduction of tetrazolium salt, MTT to formazan crystals by the live cells. Based on the absorbance of the cell sample after the test is carried out, cell viable can be measured [Loveland, B. E.; Jones, T. G.; Mackay. I. R.; Vaillant, F.; Wang, Z. X.; Hertzog, P. J. Biochem. International 1992, 27, 501 and Wright, S. A.; Thomas, L. N.; Douglas, R. C.; Lazier, C. B.; Rittmaster, R. S. J. Clin. Invest. 1996, 98, 2558]. Cells were cultured at a density of 5×10^3 cells/well in 96 well plates at 37° C. in 5.0% CO2 atmosphere and were allowed to attach for 24 hr. The cells were treated in triplicate with graded concentration of sample and reference drug Finasteride at 37° C. for 48 hr. A 20 μl aliquot of MTT solution was added directly to all the appropriate wells. Following 4 hr of incubation at […], the media was removed and formazan crystals, which results from the reduction of MTT by active cell were dissolved in 100 μl DMSO and vigorously mixed to dissolve the reacted dye. The absorbance of each well was read on Elisa plate reader (Merck) at 570 nm. The spectrometer was calibrated to zero absorbance using culture medium without cells. The relative cell viability (%) related to control well containing cell culture medium without drug was calculated by [A]test/[A]control×100. % Growth Inhibition=[OD]control−[OD]test/[OD]control×100 Results: […]

[2] = In vitro cytotoxicity using mouse macrophages (acute toxicity), MTT assay; format: cell-based; details: both sexes, Balb C; mouse macrophages, from linear equation of MTT data; read-out: LC50 (concentration lethal to 50% population of cells)
Description: (§1) All steroids were dissolved in ethanol and diluted to appropriate concentration: 0.01, 0.5, 1.0, 2.0, 5.0 μg/ml from the two stock solution of 1 mg/ml and […]. Stocks were maintained at room temperature.
(§2) […] Approximately 1 ml of Phosphate buffer saline preincubated at 37° C. was injected into cavity. The abdomen was lavaged for 10 min and fluid along with macrophages were taken out using a syringe into polypropylene tube. The phosphate solution was spun at 800 rpm for 5-10 min and cells were resuspended in 1 ml RPMI media. Cell number was counted using haemocytometer.
(§3) Cells (mouse macrophages) were plated at a density of 5×10^3 cells/well in 96 plate at 37° C. in 5% CO2. Cells were exposed in graded concentration of compounds at designated various concentration. Each concentration was tested in triplicate wells. After 48 hr fresh MTT 20 μl (1 mg/ml) was added directly to all the wells and culture was incubated for 4 hr at 37° C. During this incubation, MTT was converted into a water insoluble formazan complex by metabolic activity of viable cells. Formazan crystal were taken and dissolved in 100 μl of DMSO, which give light pink colour. The absorbance of each well was read on Elisa plate reader (Merck) at 570 nm. The spectrometer was calibrated to zero absorbance using culture medium without cells. The relative cell viability (%) related to control well containing cell culture medium without drug was calculated by [A]test/[A]control×100. % Cell Viability=[A]test/[A]control×100 [A]test=absorbance test sample [A]control=absorbance control sample Results: LC50: Concentration of the Compound in μg/ml (μm), Lethal to 50% Population of Cells.
(§4) The assay quantifies the viable cells, after […] incubation of cells with five different concentrations.

[3] = system: mouse macrophages (Balb C); experiment: as above; format: cell-based
Description: as §1, §2, §3, §4

[4] = both, Balb C, mouse, 48 h, 0.01 μg/ml
[5] = both, Balb C, mouse, 48 h, 0.5 μg/ml
[6] = both, Balb C, mouse, 48 h, 1 μg/ml
[7] = both, Balb C, mouse, 48 h, 2 μg/ml
[8] = both, Balb C, mouse, 48 h, 5 μg/ml

Row | Compound | Serum levels of Testosterone, T (5α-reductase) | effect on serum testosterone level (in words) (5α-reductase) | inhibition at 0.01 µg/mL ([1]; 0.01 μg/ml) | inhibition at 0.5 µg/mL ([1]; 0.5 μg/ml) | inhibition at 1 µg/mL ([1]; 1.0 μg/ml) | inhibition at 2 µg/mL ([1]; 2.0 μg/ml) | inhibition at 5 µg/mL ([1]; 5.0 μg/ml) | CC50 at 48 h [2] | % growth inhibition (mean ± SEM) ([1]; 5.0 μg/ml) | % viable Cells (mean ± SEM) [3, 4] | % viable Cells (mean ± SEM) [3, 5] | % viable Cells (mean ± SEM) [3, 6] | % viable Cells (mean ± SEM) [3, 7] | % viable Cells (mean ± SEM) [3, 8] | antiproliferative activity (in words) [1] | further results
1 | C[C@]12CC[C@H](OC(=O)COc3ccccc3)CC1=CC[C@@H]1[C@@H]2CC[C@]2(C)C(=NO)CC[C@@H]12 [Compound 16, 17-oximino-5-androsten-3β-yl phenoxyacetate] | 0.85 ng/mL | Significant increase in level of serum testosterone level | 33.6 ± 7.66% | 24.2 ± 6.37% | 36.2 ± 9.85% | 76.5 ± 5.58% | 87.8 ± 1.11% | 89 µM |  |  |  |  |  |  |  | % viable Cells (mean ± SEM) ([3]; mouse macrophages, 0.01 μg/ml): 80.79 ± 2.30%; % viable Cells (mean ± SEM) ([3]; mouse macrophages, 0.5 μg/ml): 78.32 ± 0.89%; % viable Cells (mean ± SEM) ([3]; mouse macrophages, 1.0 μg/ml): 77.04 ± 0.23%; % viable Cells (mean ± SEM) ([3]; mouse macrophages, 2.0 μg/ml): 77.31 ± 0.37%; % viable Cells (mean ± SEM) ([3]; mouse macrophages, 5.0 μg/ml): 77.37 ± 0.16%; toxicity to mouse macrophages (in words) ([3]; mouse macrophages, 0.01-5.0 μg/ml): non toxic to mouse macrophages
2 | CC(C)(C)NC(=O)[C@H]1CC[C@H]2[C@@H]3CC[C@H]4NC(=O)C=C[C@]4(C)[C@H]3CC[C@]12C [Finasteride, reference compound] | 1.26 ± 0.02 ng/mL and 1.26 ng/mL |  | 5 ± 1.58% | 8.83 ± 8.4% | 16.5 ± 2.49% | 36 ± 8.95% | 78% | 28.2 µM | 78.51 ± 4.63% | 96.45 ± 0.36% | 94.20 ± 1.72% | 93.32 ± 0.59% | 81.18 ± 0.20% | 79.14 ± 0.312% |  | 
3 | C[C@]12CC[C@H](OC(=O)c3ccc([N+](=O)[O-])cc3)CC1=CC[C@@H]1[C@@H]2CC[C@]2(C)C(=NO)CC[C@@H]12 [Compound 11, 17-oximino-5-androsten-3β-yl 4-nitrobenzoate] | 1.01 ng/mL | loss of activity | 41.5 ± 0.71% | 60.5 ± 4.9% | 67.3 ± 3.7% | 74 ± 0.77% | 81 to 84% | 19.5 µM | 81.53 ± 1.79% | 88.79 ± 0.19% | 86.50 ± 0.107% | 76.74 ± 0.107% | 76.30 ± 0.46% | 75.85 ± 0.259% | relatively less activity than above compounds but still better than Finasteride | 
4 | C[C@]12CC[C@H](OC(=O)c3ccc(Cl)cc3)CC1=CC[C@@H]1[C@@H]2CC[C@]2(C)C(=NO)CC[C@@H]12 [Compound 10, 17-oximino-5-androsten-3β-yl 4-chlorobenzoate] | 0.95 ng/mL | loss of activity | 43.4 ± 0.77% | 57.1 ± 5.96% | 64.9 ± 7.4% | 69.2 ± 7.48% | 81 to 84% | 24 µM | 84.47 ± 0.74% | 88.22 ± 0.41% | 87.21 ± 0.46% | 77.40 ± 0.43% | 77.14 ± 0.21% | 73.149 ± 0.13% | relatively less activity than above compounds but still better than Finasteride | 
5 | C[C@]12CC[C@H](OC(=O)c3ccc(O)cc3)CC1=CC[C@@H]1[C@@H]2CC[C@]2(C)C(=NO)CC[C@@H]12 [Compound 15, 17-oximino-5-androsten-3β-yl 4-hydroxybenzoate] | 0.73 ng/mL |  | 62.6 ± 2.46% | 76.9 ± 5.94% | 83.08 ± 0.75% | 91.4 ± 1.5% | > 90% | 22 µM | 91.54 ± 0.19% | 89.80 ± 2.95% | 81.02 ± 2.83% | 63.99 ± 0.91% | 56.88 ± 0.39% | 55.36 ± 0.19% | more potent than the reference Finasteride | 
6 | C[C@]12CC[C@H](O)CC1=CC[C@@H]1[C@@H]2CC[C@]2(C)C(=NO)CC[C@@H]12 [Parent Compound 9, 17-oximino-5-androsten-3β-ol] |  |  |  |  |  |  |  |  | Ni^a |  |  |  |  |  | not shown any significant inhibitory effect on cell proliferation; also recorded: not shown significant antiproliferative activity | % growth inhibition (mean ± SEM) ([1]; 0.01 μg/ml): Ni^a; % growth inhibition (mean ± SEM) ([1]; 0.5 μg/ml): Ni^a; % growth inhibition (mean ± SEM) ([1]; 1.0 μg/ml): Ni^a; % growth inhibition (mean ± SEM) ([1]; 2.0 μg/ml): Ni^a
